Series [1] can be described thus: pH and osmolality of amikacin starting material and solution. Type of series: physicochemical. Particulars: starting material. The source says: Amikacin Base, EP is compendial (Ph Eur) and is manufactured by ACS Dobfar S.p.a under DMF 13762. The API is manufactured in Bergamo, Italy. Fosfomycin Disodium is compendial (Ph Eur) and is manufactured by Ercros, S.A. under DMF 14341. The API is manufactured in Madrid, Spain. Rather than commercial amikacin sulfate, the amikacin base is the starting material. Amikacin base has a pH of approximately 11, and large amounts of HCl are required to neutralize the pH. In the two-part formulation (used to combine with equal volumes of 40 mg/mL fosfomycin to generate the final formulation of 50 mg/mL amikacin, 20 mg/mL fosfomycin), the amikacin 100 mg/mL solution has a final pH of 7.5-7.6 and has an osmolality of approximately 533 mOsmol/kg, of which only approximately 170 mOsmol/kg is due to the amikacin, the balance is from the chloride anion. This concentration of chloride anion provides the permeant anion that will prevent cough.
In contrast, the starting pH of amikacin sulfate is 3.5-5.5 and little or no HCl is needed to neutralize the pH of the solution. Note that in the Neiderman paper (supra) amikacin sulfate was delivered as an aerosol to patients with VAP, and bronchospasm was reported in some patients. […] As described above, a final formulation has an amikacin concentration of 50 mg/ml and chloride anion concentration of approximately 265 meq/liter. […]

Series [2] deals with Stenotrophomonas maltophilia. The note with it: Zhanel et al.; cited from earlier work.
Series [3] in a line: in vivo. Particulars: dog; for Cmax: both, beagle. The procedure: A GLP (Good Laboratory Practice) study was performed using 24 beagle dogs allocated to four dose groups (three males and three females per group) and exposed to aerosol generated with the PARI Investigational eFlow® Inline Nebulizer System using a closed-faced mask fitted with a mouth tube. The aerosols contained either control (water for injection) in Group 1 or a combined formulation containing 50 mg/mL amikacin and 20 mg/mL fosfomycin pH adjusted with HCl for Groups 2 to 4. Aerosol concentrations were determined on Days 1 and 7. The treatment period was for seven days with termination of the dogs on Day 8.
Toxicokinetic parameters were estimated using WinNonlin pharmacokinetic software version 5.2.1 (Pharsight Corp.). A non-compartmental approach consistent with the extravascular route of administration was used for parameter estimation. All parameters were generated from individual amikacin and fosfomycin concentrations in plasma from Days 1 and 7.

Series [4] concerns Pseudomonas aeruginosa. As to the kind of experiment: MIC by CLSI agar dilution, amikacin-resistant P. aeruginosa strains (SENTRY). The note with it: 21 P. aeruginosa isolates. Type of series: cell-based. The source says:
(§1) Sixty-two amikacin-resistant strains were selected from a worldwide antimicrobial surveillance collection (SENTRY), which contains 35,000 organisms from six continents (56/62 organisms collected in 2011).
Background: In agar dilution, organisms are placed on agar that contains the substance at set levels.

For series [5], the system named is Acinetobacter baumannii. Description: MIC by CLSI agar dilution, amikacin-resistant A. baumannii strains (SENTRY). Type of series: cell-based. The note with it: for MIC50: 21 A. baumannii isolates.
From the text: as §1

Series [6] can be described thus: in vivo. Also noted: species or system beagle dogs. Particulars: both sexes, beagle, dog, delivered as combination antibiotic aerosol, 7-day treatment. The procedure: Aerosol concentrations were determined on Days 1 and 7.
A short description of series [7]: clinical. Particulars: both, human, in vivo. The method, then:
Adult patients having a clinical diagnosis of VAP, with a Gram-positive or Gram-negative organism in a tracheal aspirate sample were expected to be on mechanical ventilation for ≧3 days.
Each adult patient received 3 escalating doses of a mixture of 50 mg/mL amikacin and 20 mg/mL fosfomycin, with doses separated by 24±2 hours (Table 1).
All treatments were administered with a single patient, multi-treatment nebulizer (Investigational eFlow® Inline Nebulizer System; PARI Pharma GMBH, Starnberg, Germany), positioned in the inspiratory tubing between the ventilator and the patient. The nebulizer remained inline until all treatments were delivered.
A placebo: 0.9% normal saline, having a volume matched to the antibiotic dosing schedule was delivered via the PARI Investigational eFlow® Inline Nebulizer System in mechanically ventilated patients.
The eFlow® Inline Nebulizer System was positioned in the inspiratory tubing between the Puritan Bennett 840 Ventilator and the patient. Once in place, the nebulizer remained inline until all study-drug doses were delivered. Humidification continued during the nebulization of the formulation and the delivery of the entire dose.
Patients are male or female between 18 years and 80 years of age with clinical diagnosis of VAP or VAT, a Gram-positive or Gram-negative bacteria on Gram stain of the tracheal aspirate and were expected to be on mechanical ventilation for at least three days.

Series [8] relates to Pseudomonas aeruginosa. Particulars: 1477 Pseudomonas aeruginosa isolates, Zhanel et al.; cited from earlier work.
Series [9] deals with Klebsiella pneumoniae. Description: MIC by CLSI agar dilution, amikacin-resistant K. pneumoniae strains (SENTRY). Type of series: cell-based. The note with it: 20 K. pneumoniae isolates.
From the text: as §1

The test system of series [10] is 62 Gram-negative, amikacin-resistant pathogens. As to the kind of experiment: MIC by CLSI agar dilution, all 62 amikacin-resistant isolates. Type of series: cell-based. The note with it: for MIC50: All 62 isolates.
From the text: as §1

Series [11] is described as follows: Aerosol particle size distribution (MMAD) in dog study. Type of series: physicochemical. The note with it: analytical methods, eFlow Inline Nebulizer aerosol.
For series [12], the system named is methicillin-resistant Staphylococcus aureus (MRSA). The note with it: 148 MRSA isolates, data from the 1980s; cited from earlier work.
For series [13] the following is noted: of water; cited from earlier work.
The conditions of series [14]: inhaled; cited from earlier work.
Where [15] appears, read: read-out: Median (MIC50) Amikacin MIC.
Where [16] appears, read: read-out: Median (MIC50) Fosfomycin MIC.

Values after ≈ are worked out from the molar mass of the structure shown. Structures can show the parent of a compound that is named as a salt. Where two headings read alike, the source gives them in different places.

The source of these data is patent US8636983B2, “Aminoglycoside and fosfomycin combination for treatment of ventilator associated pneumonia (VAP) and ventilator associated tracheal (VAT) bronchitis” (priority 2011, dated 2014).

With `NCC[C@H](O)C(=O)N[C@@H]1C[C@H](N)[C@@H](O[C@H]2O[C@H](CN)[C@@H](O)[C@H](O)[C@H]2O)[C@H](O)[C@H]1O[C@H]1O[C@H](CO)[C@@H](O)[C@H](N)[C@H]1O` [Amikacin base], the pH entry in [1] is recorded as “approximately 11”.

With `NCC[C@H](O)C(=O)N[C@@H]1C[C@H](N)[C@@H](O[C@H]2O[C@H](CN)[C@@H](O)[C@H](O)[C@H]2O)[C@H](O)[C@H]1O[C@H]1O[C@H](CO)[C@@H](O)[C@H](N)[C@H]1O` [Amikacin, amikacin], the “MIC 90” value is above 64 µg/mL in series [2] and 32 µg/mL (≈ 54.6 µM) in series [8]. This compound also registered a Cmax in [3] of 13200 to 39300 ng/mL. The “accumulation following repeat dosing” value in [3] is recorded as “no clear indication of accumulation”. In addition, the MIC50 in [4] (setting [15]) was 128 µg/mL (≈ 219 µM); in [5] (setting [15]) it was 8 µg/mL (≈ 13.7 µM); in series [9] (setting [15]), 256 µg/mL (≈ 437 µM); in series [10] (setting [15]), 128 µg/mL (≈ 219 µM). This compound also yielded a minimal inhibitory concentration (MIC) in series [5] (5 A. baumannii isolates with high amikacin resistance) above 1020 µg/mL. Besides, the no-observed-adverse-effect level (NOAEL) at 7 days in [6] was found to be 117 mg/kg/day. The Kp in [7] was above 2000. Also, the “Mean amikacin Cmax in tracheal aspirate, fold higher than MIC 90 for P. aeruginosa” value in series [7] was at least 406 fold. For the same compound, the “amikacin Cmax in tracheal aspirate, fold higher than MIC90 of P. aeruginosa” value in series [7] is listed as at least 89 fold. Further, in series [10] (FIG. 4), the “amikacin concentration required to inhibit all 62 isolates” value is above 1024 µg/mL. In series [11], the “particle size distribution (MMAD)” value amounted to 2.80 μm.

For `C[C@@H]1O[C@@H]1P(=O)(O)O` [Fosfomycin, fosfomycin], in series [3], the Cmax was in the range of 8700 to 28700 ng/mL. The “accumulation following repeat dosing” value in series [3] is recorded as “no clear indication of accumulation”. Besides, the MIC50 in series [4] (setting [16]) is 51.2 µg/mL (≈ 371 µM); in [5] (setting [16]), 205 µg/mL (≈ 1480 µM); in series [9] (setting [16]), 25.6 µg/mL (≈ 185 µM); in series [10] (setting [16]), 51.2 µg/mL (≈ 371 µM). Further, the “MIC 90” value in series [12] was 32 µg/mL (≈ 232 µM). The no observed adverse effect level (NOAEL) at 7 days in series [6] amounted to 47.5 mg/kg/day. This compound gave a Kp in [7] above 2000. Also, the “Mean fosfomycin Cmax in tracheal aspirate, fold higher than MIC 90 for MRSA” value in [7] was determined as 281 fold. Moreover, in series [7], the “fosfomycin Cmax in tracheal aspirate, fold higher than MIC 90 of MRSA” value is listed as at least 54 fold. Besides, the “fosfomycin tracheal aspirate concentrations, fold above the MIC 90 for MRSA” value in series [7] (6 h) is at least 2.2 fold. Also, the “particle size distribution (MMAD)” value in series [11] is given as 2.75 μm.

Turning to `C[C@@H]1O[C@@H]1P(=O)(O)O` [disodium salt of fosfomycin, Fosfomycin disodium], the solubility in series [13] is listed as 50 mg/mL.

As to `NC[C@H]1O[C@H](O[C@H]2[C@H](O)[C@@H](O[C@H]3O[C@H](CO)[C@@H](O)[C@H](N)[C@H]3O)[C@H](N)C[C@@H]2N)[C@H](N)C[C@@H]1O` [tobramycin], the airway half-life entry in series [14] is recorded as “about 2 hours”.

The term Cmax denotes the maximum level reached in the sampled fluid or tissue. Usually MIC50 stands for the lowest concentration that inhibits either 50% of growth or 50% of the strains tested, depending on the study. A word on the MIC: it is the least concentration at which growth counts as inhibited. A high value points to a less susceptible organism. One may read the NOAEL as the highest dose or exposure tested at which no adverse effect was seen. One may read the solubility as how much of the substance goes into solution per volume.
